Measured values taken from US12150940B2, “WASp-protecting small molecules, compositions, methods and uses thereof in the treatment of innate and acquired immune-related disorders or conditions” (BAR ILAN UNIVERSITY, priority 2016, dated 2024).

Tests used:
[1] = target: T1, WIP-WASp interaction (Homo sapiens, UniProt P42768, K230R/R34Q); test: FRET analysis of WIP-WASp interaction in activated T-cells expressing CFP-WASp and YFP-WIP; type: cell-based; details: anti-CD3 stimulatory coverslips, fixed after 5 min; mean ± SE
T1 construct: expressed in transfected cells
T1 sequence (P42768 whole entry R34Q/K230R): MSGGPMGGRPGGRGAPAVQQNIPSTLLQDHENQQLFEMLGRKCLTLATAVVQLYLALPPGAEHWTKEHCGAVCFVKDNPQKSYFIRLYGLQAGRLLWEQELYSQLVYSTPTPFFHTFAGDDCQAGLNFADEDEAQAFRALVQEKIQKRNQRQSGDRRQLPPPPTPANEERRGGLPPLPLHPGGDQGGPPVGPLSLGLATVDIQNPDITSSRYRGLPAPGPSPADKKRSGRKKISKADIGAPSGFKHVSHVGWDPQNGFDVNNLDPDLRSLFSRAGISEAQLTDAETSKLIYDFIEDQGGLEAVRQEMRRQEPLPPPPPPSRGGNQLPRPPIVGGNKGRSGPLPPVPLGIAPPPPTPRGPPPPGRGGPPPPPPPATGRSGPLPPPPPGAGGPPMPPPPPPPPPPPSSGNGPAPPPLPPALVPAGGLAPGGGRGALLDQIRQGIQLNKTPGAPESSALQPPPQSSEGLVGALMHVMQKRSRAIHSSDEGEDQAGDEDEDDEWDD
T1 sequence (O43516 whole entry partner): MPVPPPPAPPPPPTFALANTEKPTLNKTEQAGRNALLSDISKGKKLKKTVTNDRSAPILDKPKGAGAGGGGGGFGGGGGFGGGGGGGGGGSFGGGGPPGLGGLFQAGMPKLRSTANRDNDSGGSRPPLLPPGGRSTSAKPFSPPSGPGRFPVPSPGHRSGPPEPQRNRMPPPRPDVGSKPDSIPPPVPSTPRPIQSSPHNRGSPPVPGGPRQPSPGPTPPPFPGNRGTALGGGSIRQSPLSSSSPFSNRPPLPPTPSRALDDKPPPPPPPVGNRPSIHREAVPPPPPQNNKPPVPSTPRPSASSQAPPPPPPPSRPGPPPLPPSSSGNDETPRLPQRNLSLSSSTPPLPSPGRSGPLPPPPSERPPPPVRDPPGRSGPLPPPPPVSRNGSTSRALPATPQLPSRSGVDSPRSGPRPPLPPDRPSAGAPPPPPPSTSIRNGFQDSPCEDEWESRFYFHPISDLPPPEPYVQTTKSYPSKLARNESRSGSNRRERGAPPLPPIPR
Protocol: FIG. 13A: Jurkat T cells stably expressing CFP-WASp and YFP-WIP were treated with WASp-binding SMC #6, SMC #30, SMC #33, SMC #34 or control. The cells were then plated on stimulatory coverslips (coated with an anti-CD3 antibody), and fixed after 5 min. Cells were imaged by confocal microscope, and FRET efficiency was measured by the donor-sensitized acceptor emission technology (see Experimental procedures for details).
FIG. 13B: graph summarizing the percentage FRET efficiency in cells plated on the stimulatory coverslips, with the indicated treatment. Data are from four independent experiments. Error bars represent the SE from the mean. P values were calculated by two-tailed Student's t-test.
Spreading assays were performed as previously described (Fried et al, 2014; Barda-Saad 2005). Briefly, T cells (2×10^6 cells/ml) were seeded on the bottom of chambered cover glasses (LabTek) that were pre-coated with anti-CD3 stimulatory monoclonal antibodies (10 μg/ml). The cells were incubated in imaging buffer [RPMI without phenol red containing 10% fetal calf serum (FCS) and 25 mM HEPES] at 37° C., 5% CO2, for the times indicated in the figure legends. Cells were fixed for 25 min with 4% paraformaldehyde in phosphate-buffered saline (PBS) and then were washed three times with PBS.
Double-color FRET was performed as described previously (Barda-Saad et al, 2005; Pauker, 2011, Pauker, 2012). […] The non-FRET components were calculated and removed with calibration curves derived from images of single-labeled cells containing CFP or YFP, as previously described (Barda-Saad et al, 2005). […] Bleed-through components were calculated as a function of the intensity of the expressed fluorescent proteins with data gathered from single-labeled cell lines. By using the intensity measured pixel by pixel through the different filter sets, as well as cross-talk elements that were isolated from the control, single-labeled cells, the measured FRET was corrected and the actual FRET efficiency at every pixel was determined. The relative FRET efficiency (FRETeff) was calculated on a pixel-by-pixel basis with the following equation: FRETeff=FRETcorr/(FRETcorr+donor)×100%, where FRETcorr is the pixel intensity in the corrected FRET image, and donor is the intensity of the corresponding pixel in the appropriate donor channel image. To increase the reliability of the calculations and to prevent low-level noise from distorting the calculated ratio, the inventors excluded pixels below 50 intensity units, as well as saturated pixels from the calculations, and set their intensities to zero. […] The FRET efficiency in the negative control system was measured and calculated in the same manner as that in the main experiment. […]

[2] = system: Jurkat T cells; test: Lymphocyte migration on ICAM-1/SDF-1α-coated cover glasses; type: cell-based, human; details: tracked over 20 min, mean ± SE
Protocol: Jurkat T cells were pretreated with DMSO or the indicated WASp-binding SMCs, and cell migration on ICAM-1/SDF-1α-coated cover glasses was tracked over a 20-min period, as described in Experimental procedures. Each line in FIG. 10A represents one cell. The tracks of five representative cells from each treatment are presented.
Error bars represent the SE from the mean. P values versus DMSO-treated control cells are presented and were calculated by two-tailed Student's t-test.
Approximately 1×10^5 lymphocytes were seeded over chambered coverslips (LabTek) pre-coated with 6 μg/ml ICAM-1 and 2 μg/ml SDF-1α. Cells were incubated at 37° C., 5% CO2 and DIC images were acquired with the Zeiss Observer Z1 inverted microscope every 5 s for 20 min under a 20× objective lens using Zen software. The random movement (Displacement and velocity) of the cells was automatically tracked and analyzed using TrackMate plugin of ImageJ software. An individual trace was assigned to each of the analyzed cells.
A common theme of active lymphocytes is their high migratory ability. This enables them to move within tissues and reach and engage target cells (Burkhardt et al, 2008). Because WASp plays a role in cellular motility, the ability of WASp-binding SMCs to effectively enhance the migration of lymphocytes was tested. The random movement of SMC-treated or control cells was automatically tracked and analyzed using live microscopy, as described in Experimental procedures.

[3] = system: PBMCs; test: Lymphocyte activation in PBMCs (CD69 and activated LFA-1, flow cytometry); type: cell-based, human; details: PBMCs stimulated with PMA and Ionomycin, vs control
Protocol: Figures show 1×10^6 PBMC cells/ml stimulated with PMA and Ionomycin that were treated with DMSO or WASp-binding SMCs. After incubation, the cells were stained with PE-Cy5™-conjugated mouse anti-human CD69 and lymphocyte activation was measured by flow-cytometry as described in the Experimental procedures. Histograms of DMSO versus SMC #6 (FIG. 8A), SMC #30 (FIG. 8B), SMC #33 (FIG. 8C), and SMC #34 (FIG. 8D) are presented and represent three independent experiments.
After incubation, the cells were stained with anti-activated LFA-1 antibody (KIM127), followed by staining with Alexa488-Fluor goat anti-mouse IgG1 secondary antibody, and lymphocyte activation was measured by flow-cytometry as described in the Experimental procedures. Histogram of negative control versus SMC #6 is presented.
PBMCs or Jurkat cells (about 3×10^5 cells) were incubated for 4 h, at 37° C. with 50 ng/ml PMA and 250 ng/ml lonomycin, or 40 ng/ml PMA and 6 μM Ionomycin, respectively, or left untreated. After incubation, the cells were collected and stained with 1 μg/ml anti-active human LFA-1 antibody (purified from KIM127 hybridoma sup, ATCC Cat #: CRL-2838, Sigma) for 30 min in 37° C., followed by staining with Alexa488-Fluor goat anti-mouse IgG1 secondary antibody (Molecular Probes, Cat #: A-21121), 30 min on ice. Cells were then co-stained with PE-Cy5™-conjugated mouse anti-human CD69 (BD Pharmingen, Cat #: 555532) to measure lymphocyte activation.
Lymphocyte activation is a hallmark of a normal immune response. To test whether treatment with WASp-binding SMCs could upregulate lymphocyte activation, freshly-isolated PBMCs were incubated with SMCs or control (solvent only) and stimulated with PMA and lonomycin. The cells were then stained with two different antibodies, which recognize two lymphocyte activation markers, CD69 and an epitope exposed at the active conformation of the integrin LFA-1 (KIM127). Both were detected by flow-cytometry.

| SMILES | average FRET efficiency [1] | mean cell displacement [2] | lymphocyte activation (CD69, activated LFA-1) [3] |
| --- | --- | --- | --- |
| CC(=O)N[C@H]1C[C@@H](c2ccc3c(c2)nnn3C)O[C@@H](c2ccc(Cl)cc2)C1 [SMC #6, N-[(2R,4R,6S)-2-(4-chlorophenyl)-6-(1-methylbenzotriazol-5-yl)oxan-4-yl]acetamide] | 22.7±1.4% | 29.52±2.96 | upregulation of lymphocyte activation |
| CC1CCCC(C)N1C(=O)CSc1nnc(COc2cccc3cccnc23)o1 (stereo not drawn) [SMC #34, 1-(2,6-dimethylpiperidin-1-yl)-2-[[5-(quinolin-8-yloxymethyl)-1,3,4-oxadiazol-2-yl]sulfanyl]ethanone] | 23.8±1.1% | 48.91±6 | upregulation of lymphocyte activation |
| Cc1ccccc1N(CC(=O)NCc1ccccc1)C(=O)CCC(=O)Nc1nccs1 [SMC #33, N′-[2-(benzylamino)-2-oxoethyl]-N′-(2-methylphenyl)-N-(1,3-thiazol-2-yl)butanediamide] | 21.4±1.4% | 32.92±4.28 | upregulation of lymphocyte activation |
